Molecular target: histamine H1 receptor (H1R) (Homo sapiens, UniProt P35367)
Test: [3H]-thymidine incorporation in CHO-H1R cells
Assay type: cell-based

histamine H1 receptor (H1R), sequence (P35367 whole entry): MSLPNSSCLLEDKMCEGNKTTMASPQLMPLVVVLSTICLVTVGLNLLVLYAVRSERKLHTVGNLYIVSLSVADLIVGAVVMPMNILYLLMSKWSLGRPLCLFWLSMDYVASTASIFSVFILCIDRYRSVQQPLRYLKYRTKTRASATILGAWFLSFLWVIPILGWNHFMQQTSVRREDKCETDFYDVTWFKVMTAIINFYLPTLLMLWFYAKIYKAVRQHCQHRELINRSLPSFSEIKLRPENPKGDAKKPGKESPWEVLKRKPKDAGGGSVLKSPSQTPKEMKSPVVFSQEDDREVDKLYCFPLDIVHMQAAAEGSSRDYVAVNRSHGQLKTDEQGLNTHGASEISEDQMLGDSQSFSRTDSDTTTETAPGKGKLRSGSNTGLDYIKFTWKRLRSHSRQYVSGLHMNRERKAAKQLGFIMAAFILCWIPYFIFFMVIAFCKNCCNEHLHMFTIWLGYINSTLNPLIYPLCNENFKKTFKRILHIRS

In the case of NCCc1cnc(-c2cccc(C(F)(F)F)c2)[nH]1 [H1, 2,3-trifluormetilfenilhistamine], the EC50 is reported as 23.1 ± 3.6 µM.
